This note sets out measurements from ChEMBL document CHEMBL5576055, “Design, synthesis, and biological evaluation of chalcone acetamide derivatives against triple negative breast cancer” (Bioorg Med Chem Lett, 2024).

The source made the active and inactive calls. The rule behind the calls is not given here.

For data set [1], the system named is HCT-116. Briefly: Antiproliferative activity against human HCT-116 cells assessed as inhibition of cell growth measured after 48 hrs by SRB method. Format: functional, cell-based. As to conditions: HCT-116, 48 h.
The subject of data set [2] is A549. Briefly: Antiproliferative activity against human A549 cells assessed as inhibition of cell growth measured after 48 hrs by SRB method. The class given is functional, cell-based. As to conditions: A549, 48 h. In general terms: The SRB assay estimates cell density from bound dye.
The nature of data set [3]: Antiproliferative activity against HEK293 cells assessed as inhibition of cell growth measured after 48 hrs by SRB method. Format: toxicity, cell-based. The following applies: human.
Data set [4] relates to MDA-MB-231. Briefly: Antiproliferative activity against human MDA-MB-231 cells. Format: functional, cell-based.
Data set [5] concerns MDA-MB-468. Briefly: Antiproliferative activity against human MDA-MB-468 cells assessed as inhibition of cell growth measured after 48 hrs by SRB method. The class given is functional, cell-based. The following applies: MDA-MB-468, 48 h.
Data set [6] deals with MDA-MB-231. Put plainly: Antiproliferative activity against human MDA-MB-231 cells assessed as inhibition of cell growth measured after 48 hrs by SRB method. As to conditions: MDA-MB-231, 48 h. The class given is functional, cell-based.
Data set [7] deals with MCF7. Put plainly: Antiproliferative activity against human MCF7 cells assessed as inhibition of cell growth measured after 48 hrs by SRB method. Format: functional, cell-based. The following applies: MCF7, 48 h.
Data set [8] has as its system MDA-MB-231. Put plainly: Induction of apoptosis in human MDA-MB-231 cells assessed as reduction in Bcl-2 expression by Western blot analysis. Format: functional, cell-based.
Data set [9] can be described thus: Selectivity index, ratio of IC50 for HEK293 cells to IC50 for human MDA-MB-468 cells. The class given is toxicity. The following applies: HEK293 cells versus MDA-MB-468 cells, read-out: Ratio IC50.
For data set [10], the system named is MDA-MB-231. Put plainly: Induction of ROS generation in human MDA-MB-231 cells measured after 48 hrs by DCFDA staining based fluorescent microscopic analysis. Format: functional, cell-based. The following applies: dose 4-16 µM.
The subject of data set [11] is MDA-MB-231. Put plainly: Antiproliferative activity against human MDA-MB-231 cells assessed as inhibition of cell growth at 20 uM by SRB method relative to control. Format: functional. The arrangement: scale not given: the % may be the effect or the level left.
Data set [12] relates to HCT-116. Put plainly: Antiproliferative activity against human HCT-116 cells assessed as inhibition of cell growth at 20 uM by SRB method relative to control. The class given is functional. The arrangement: scale not given: the % may be the effect or the level left.
Data set [13] is described as follows: Selectivity index, ratio of IC50 for HEK293 cells to IC50 for human MDA-MB-231 cells. Format: toxicity. The following applies: HEK293 cells versus MDA-MB-231 cells, read-out: Ratio IC50.
In data set [14] the test system is MDA-MB-231. Put plainly: Induction of apoptosis in human MDA-MB-231 cells assessed as chromatin condensation at 4 to 16 uM measured after 48 hrs by DAPI staining based fluorescent microscopic analysis. Format: functional, cell-based. The following applies: dose 4-16 µM.
Data set [15] concerns A549. Put plainly: Antiproliferative activity against human A549 cells assessed as inhibition of cell growth at 20 uM by SRB method relative to control. Format: functional. The arrangement: scale not given: the % may be the effect or the level left.
Data set [16] relates to MDA-MB-468. Put plainly: Antiproliferative activity against human MDA-MB-468 cells assessed as inhibition of cell growth at 20 uM by SRB method relative to control. The arrangement: scale not given: the % may be the effect or the level left. Format: functional.
In data set [17] the test system is MDA-MB-231. Put plainly: Induction of apoptosis in human MDA-MB-231 cells assessed as increase in caspase-3 expression by Western blot analysis. Format: functional, cell-based. A general note: Immunoblotting shows a protein as a band on a membrane.
In data set [18] the test system is MDA-MB-231. Briefly: Inhibition of colony formation in human MDA-MB-231 cells assessed as reduction in colony size at 4 to 16 uM incubated for 24 hrs. The following applies: dose 4-16 µM. Format: functional, cell-based.
Data set [19] has as its system MDA-MB-231. Put plainly: Induction of apoptosis in human MDA-MB-231 cells assessed as upregulation of bax expression by Western blot analysis. Format: functional, cell-based.
Data set [20] relates to MDA-MB-231. Briefly: Induction of apoptosis in human MDA-MB-231 cells assessed as cell blebbing at 4 to 16 uM measured after 48 hrs by DAPI staining based fluorescent microscopic analysis. The class given is functional. The following applies: dose 4-16 µM.
Data set [21] concerns MDA-MB-231. Briefly: Inhibition of colony formation in human MDA-MB-231 cells incubated for 24 hrs. Format: functional, cell-based. As to conditions: dose 4-16 µM.
The test system of data set [22] is MDA-MB-231. Briefly: Inhibition of colony formation in human MDA-MB-231 cells assessed as reduction in number of colonies at 4 to 16 uM incubated for 24 hrs. The class given is functional, cell-based. The following applies: dose 4-16 µM.
The nature of data set [23]: Selectivity index, ratio of IC50 for HEK293 cells to IC50 for human MCF7 cells. Format: toxicity. The following applies: HEK293 cells versus MCF7 cells, read-out: Ratio IC50.
The subject of data set [24] is MDA-MB-231. Briefly: Induction of apoptosis in human MDA-MB-231 cells assessed as effect on bax/bcl-2 ratio by Western blot analysis. Format: functional, cell-based.
Data set [25] has as its system MCF7. Put plainly: Antiproliferative activity against human MCF7 cells assessed as inhibition of cell growth at 20 uM by SRB method relative to control. The arrangement: scale not given: the % may be the effect or the level left. The class given is functional.
Data set [26] has as its system Cell membrane. Put plainly: Induction of mitochondrial membrane potential loss in human MDA-MB-231 cells assessed as reduction in fluorescence measured after 48 hrs by rhodamine-123 dye based fluorescence assay. As to conditions: dose 4-16 µM.

The term IC50 denotes the concentration at which inhibition is half-maximal. For the compound `COc1ccc(/C=C/C(=O)c2ccc(OCC(=O)N3CCSCC3)cc2)cc1`, the values for the IC50 in data set [1] and in data set [2] were 15.2 µM and 45.4 µM, respectively.
Consider `COc1ccc(/C=C/C(=O)c2ccc(OCC(=O)NC3CCCCC3)cc2)cc1`, for which, in [1], the IC50 was determined as 18.9 µM.
On to `COc1ccc(/C=C/C(=O)c2ccc(OCC(=O)NCCc3ccccc3)cc2)cc1`, for which, in [3], the IC50 at 48 h was found to be 23.4 µM.
On to `COc1ccc(/C=C/C(=O)c2ccc(OCC(=O)NCc3cc(OC)c(OC)c(OC)c3)cc2)cc1`, for which the IC50 in data set [1] was determined as 10.5 µM. In addition, the IC50 at 48 h in data set [3] was found to be 15.2 µM.
Regarding `COc1cccc(C(=O)/C=C/c2ccc(N(CCCl)CCCl)cc2)c1`, the IC50 in data set [4] is 3940 µM.
On to `COc1ccc(/C=C/C(=O)c2ccc(OCC(=O)Nc3ncccc3Cl)cc2)cc1`, for which the IC50 is 25.2 µM in data set [5], 24.1 µM in [6] and 35.4 µM in data set [2].
Regarding `COc1ccc(/C=C/C(=O)c2ccc(OCC(=O)N3CCCCC3)cc2)cc1`, the figures for the IC50 in data set [1] and in data set [7] were 17.4 µM and 22.7 µM, respectively. The concentration for half-maximal inhibition (IC50) at 48 h in data set [3] turned out to be 10.8 µM.
Turning to `COc1ccc(/C=C/C(=O)c2ccc(OCC(=O)N3CCCC3)cc2)cc1`, the result in data set [8], in data set [14], in data set [17], in data set [19], in data set [20] and in data set [24] was Active. The selectivity ratio in [9] was 3.85; in data set [13], 4.14; in data set [23], 2.41. The IC50 was 10.1 µM in data set [5]; 9.42 µM in data set [6]; 18.3 µM in [1]; 16.2 µM in data set [7]; 17.1 µM in data set [2]. Moreover, the Activity entry was “Dose-Dependent Effect” in data set [10]; roughly 60% in [11]; roughly 60% in data set [12]; roughly 60% in data set [15]; roughly 60% in data set [16]; roughly 60% in [25]. Further, the Activity result in data set [26] was “Dose-Dependent Effect”. Further, the inhibition entry in data set [18] and in data set [22] was “Active” in each case. The inhibition entry in data set [21] is “Dose-Dependent Effect”. The IC50 at 48 h in [3] amounted to 39.1 µM.
